According to US10555910B2, “Oligonucleotide lipid nanoparticle compositions, methods of making and methods of using the same” (Ohio State Innovation Foundation, priority 2014, dated 2020):

What was measured:
[1] = test system: A549 cells; format: cell-based, human; parameters: decrease of cell viability: dose or concentration left out as unconfirmed
Procedure: Cells were grown in 96-well plates at a density of 2.0 ×10^4 cells/well. Cells were treated with controls or QT/AM-21 at 50, 100, or 200 nM, with and without PTX (4.1 nM) dissolved in a small volume of 1:1 Cremophor EL:ethanol solution. Relative cell viability was quantified by CellTiter 96® AQueous One Solution Cell Proliferation Assay (Promega, Madison, Wis., USA) according to the manufacturer's protocol 72 h following the start of treatment. Briefly, 20 μL MTS assay solution was added to each well and the plates were incubated for 1 h. The absorbance at 490 nm was recorded to determine cytotoxicity relative to the untreated control.
A549 cells were cultured as in Example 2, and treated with either QT/AM-21 (5′-U*C*A*ACAUCAGUCUGAUAAG*C*U*A-3′, SEQ ID NO:3) at three different concentrations (50 nM, 100 nM or 200 nM), paclitaxel (PTX) or a combination of PTX and QT/AM-21 (PTX/50 nM QT/AM-21; PTX/QT/100 nM-21; TX/200 nM QT/AM-21). (Dosage of PXT was 4nM).
The cells were incubated with the drugs for 72 h; after which the cells were harvested and tested for cytotoxicity and viability using MTS assay kit by Promega. Absorbance scanning was done at 490 nm to determine relative cell viabilities.

[2] = test system: A549 xenograft; assay: Combination therapy (QT/AM-21 and PTX) in A549 xenograft; format: in vivo, mice; details: 1 mg/kg QT/AM-21 tail vein and/or 3 mg/kg PTX i.p., start ~80 mm^3, 4 weeks
Procedure: Mice were treated by tail vein injection with saline control or 1 mg/kg QT/AM-21. Mice receiving PTX treatment as monotherapy or combination therapy received PTX dissolved in 1:1 Cremephor EL:ethanol solution at a dose of 3 mg/kg via intraperitoneal injection. Mice were dosed on days 1, 3, 5, 8, 15, 22, 29 and were monitored over a 4 week period. 48 h following the last dose, mice were euthanized and tumors were collected for gene regulation study.

[3] = test system: miR-21; assay: In vivo gene regulation in A549 xenograft tumors (qRT-PCR); parameters: species or system mice; details: 1 mg/kg QT/AM-21 and/or 3 mg/kg PTX
Procedure: Female athymic nude mice (n=5 per group) were implanted with 1.0×10^6 A549 cells/mouse and treatment began when tumors reached a size of ≥100 mm^3. Mice were treated by tail vein injection with saline control or 1 mg/kg QT/AM-21. Mice receiving PTX treatment as monotherapy or combination therapy received PTX dissolved in 1:1 Cremephor EL:ethanol solution at a dose of 3 mg/kg via intraperitoneal injection. Mice were dosed on days 1, 3, 5, 8, 15, 22, 29 and were monitored over a 4 week period. 48 h following the last dose, mice were euthanized and tumors were collected for gene regulation study.
Tumors were harvested and placed in TRIzol reagent (Life Technologies) following treatment and homogenized. mRNA was isolated per the manufacturer's protocol. qRT-PCR was then completed according to the same procedure as outlined in the in vitro section.

[4] = test system: miR-21; assay: In vitro gene regulation in A549 cells (qRT-PCR of miR-21 and its target genes); format: cell-based, human; details: 100 nM AM-21, mRNA relative to GAPDH
Procedure: Cells were grown in 24-well plates at a density of 7.0×10^5 cells/well 24 h prior to transfection. QT/AM-21 of varying lipid composition or QT/negative control (NC) were administered at 50 nM in the presence of 20% serum containing media to determine the optimal QT composition. […] Cells were incubated at 37° C. with transfection media for 4 h and then washed three times with PBS. Fresh complete cell culture media was added and the cells were incubated at 37° C. for an additional 44 h. RNA was isolated from cells by RNeasy 96 kit (Qiagen, Valencia, Calif., USA). qRT-PCR was conducted with Taqman® MicroRNA Assay (Life Technologies) or EXPRESS One-Step Superscript® qRT-PCR kit (Life Technologies) on an Applied Biosystems StepOnePlus™ RT-PCR system (Life Technologies). The relative amount of […] was calculated and compared according to the 2^−ΔΔCt method.
Lung cancer A549 cells (human lung adenocarcinoma epithelial cell line) were cultured in vitro as standard cell culture. Cells were cultured in RPMI 1640 media supplemented with 10% FBS and 1% antibiotics/antimycotics in a 5% CO2 atmosphere at 37° C. […]
RNA was extracted by TRIzol reagent per manufacturer's protocol. cDNA was generated by Maxima First Strand cDNA synthesis kit per manufacture's protocol. […] RECK and PTEN mRNA levels were measured relative to GAPDH.

[5] = test system: A549 cells; assay: Migration assay (scratch wound healing); format: cell-based, human; details: A549, QT lipids or AM-21 (200 nM) alone, 48 h
Procedure: A wound healing model was conducted to examine the migratory ability of A549 cells following treatment. A549 cells were plated at a density of 6.0×10^5 cells/well in a 33 mm petri dish 24 h prior to transfection. A scratch wound across the dish was made using a 10 μL pipet tip immediately before treatment. Culture media was removed and replaced with transfection media containing QT/AM-21 or appropriate controls diluted in complete media. Cells were allowed to proliferate at 37° C. for 48 h. Distances between edges of the wound were measured on a Nikon E800 microscope (Nikon, Tokyo, Japan) and SPOT Advanced Imaging Software (v5.0, Diagnostic Instruments Inc., Sterling Heights, Mich., USA).
A549 cells were cultured following standard culture procedure and incubated with QT/AM-21 (5′-U*C*A*ACAUCAGUCUGAUAAG*C*U*A-3′, SEQ ID NO:3) at three different concentrations (50 nM, 100 nM and 200 nM), or free, unformulated AM-21 (200 nM) for 48 hours. The untreated cells and cells treated with empty “QTsome™” lipid nanoparticle formulation were used as control. The migration of tumor cells was determined.

[6] = test system: A549 cells; assay: Matrigel invasion assay; format: cell-based, human; details: A549, QT lipids or AM-21 alone, 48 h
Procedure: Matrigel (BD Biosciences, San Jose, Calif., USA) was combined with serum-free RPMI 1640 culture media in a 1:1 ratio. 70 μL of gel was added to each well insert of a 24-well plate. The gel was allowed to set for 1 h at 37° C. A549 cells were seeded at […] in a volume of 100 μL/well on top of the gel in the insert. Transfection media containing various formulations or controls at 2×concentration in a 100 μL volume were added to the top of the well inserts. 500 μL 10% fetal bovine supplemented media was added as a chemoattractant below the transwell insert. The plate was incubated at 37° C. for 48 h. Following the incubation period, cells remaining in the top of the well inserts were removed with a cotton swab. Well inserts were rinsed with PBS and placed in 500 uL 0.25% trypsin solution for 1 h at 37° C. Detached cells were counted on a hemocytometer.
A matrigel invasion assay was also performed after 48 hour treatment, as follows: Chilled Matrigel was combined with chilled serum-free RPMI 1640 culture media in a 1:1 ratio. 70 uL of gel was added to each well insert of a 24-well plate. The gel was allowed to set for 1 hour at 37° C. A549 cells were seeded at 75,000 cells/well in a volume of 100 uL/well on top of the gel. […] Detached cells were counted on a hemocytometer.

CC(=O)O[C@H]1C(=O)[C@@]2(C)[C@H]([C@H](OC(=O)c3ccccc3)[C@]3(O)C[C@H](OC(=O)[C@H](O)[C@@H](NC(=O)c4ccccc4)c4ccccc4)C(C)=C1C3(C)C)[C@]1(OC(C)=O)CO[C@@H]1C[C@@H]2O [PTX, Paclitaxel]
cells still alive compared to untreated control ([1]; A549, PTX alone (4 nM), 72 h, MTS): ~65%
decrease of cell viability ([1]; human, 72 h): 40%
tumor volume at end of study [2]: 246.4 mm^3
upregulation of DDAH1 and PTEN in tumors [3]: moderate upregulation
DDAH1 upregulation in tumors ([3]; 48 h after last dose): 1.7 fold
PTEN upregulation in tumors ([3]; 48 h after last dose): 1.5 fold

u*c*a*acaucagucugauaag*c*u*a (UCAACAUCAGUCUGAUAAGCUA; linkages s3 o15 s3 (s phosphorothioate, o phosphodiester), sugars by position and methylation of C not given here; further chemistry not fully specified) [AM-21]
expression of RECK compared to untreated control A549 cells [4]: upregulated
change of cell viability on addition to PTX ([1]; A549, free AM-21 or QT lipids added to PTX, MTS): did not result in significant decreases in cell viability
cell migration in the wound region [5]: did not confer significant decreases in cell migration
cell invasion [6]: did not significantly retard cell invasion
